In one series the target is T1, mouse DGAT1 (Mus musculus, UniProt Q9Z2A7).
T1 construct: made in house; host or cells: insect cells (High Five, Sf9, Sf21, etc.), baculovirus expression system (Invitrogen)
T1 sequence (Q9Z2A7 1-498): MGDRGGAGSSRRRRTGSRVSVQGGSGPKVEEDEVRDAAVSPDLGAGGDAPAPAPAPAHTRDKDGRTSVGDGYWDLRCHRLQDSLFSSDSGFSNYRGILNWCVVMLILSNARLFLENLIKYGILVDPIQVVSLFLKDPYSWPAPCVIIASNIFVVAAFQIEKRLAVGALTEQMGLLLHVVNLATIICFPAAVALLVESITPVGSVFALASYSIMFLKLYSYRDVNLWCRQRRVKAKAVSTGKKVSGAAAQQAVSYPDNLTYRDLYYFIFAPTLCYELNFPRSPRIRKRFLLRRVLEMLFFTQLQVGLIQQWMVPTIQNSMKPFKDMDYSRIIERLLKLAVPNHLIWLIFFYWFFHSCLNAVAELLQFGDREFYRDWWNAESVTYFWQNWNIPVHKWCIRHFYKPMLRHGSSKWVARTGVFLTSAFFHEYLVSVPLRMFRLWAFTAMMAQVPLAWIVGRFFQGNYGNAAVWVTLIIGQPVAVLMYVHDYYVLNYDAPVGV
Briefly: DGAT1 inhibitory effect test (microsome fraction, [14C]-oleoyl-CoA, triglyceride radioactivity by TLC). The class given is biochemical. To be noted: 0.5 h; concentration of the test compound 0.1 μg/ml; mouse DGAT1 microsomes, 23° C., 30 minutes; read-out: Inhibitory ratio. Put shortly:
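Baculovirus-expressed mouse DGAT1 insect-cell microsomes (10 μg) were incubated 30 min at 23 °C, pH 8.0, with 0.5 mM 1,2-dioleoyl-sn-glycerol, 30 μM [14C]-oleoyl-CoA and 0.5% Triton X-100. [14C]-triglyceride was quantified after heptane extraction and TLC. Percent inhibition was taken against vehicle control, with 0-min background subtracted.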

Bounds are passed on as bounds.

We go through 23 compounds from patent publication US20070249620A1, “Urea Derivative” (priority 2004, published 2007).

As usually defined, the melting point is the temperature, or range, at which the solid turns liquid.

In the case of `Cc1ccc(Cl)c(NC(=O)Nc2ccc(N3CCN(C(=O)Nc4c(C)cccc4Cl)CC3)cc2)c1` [Example 165, 4-{4-[3-(2-chloro-5-methyl-phenyl)-ureido]-phenyl}-piperazine-1-carboxylic acid (2-chloro-6-methyl-phenyl)-amide], the melting point is > 260 °C (dec.). The inhibition at 0.1 µg/mL at mouse DGAT1 was at least 50%.
The compound `COc1ccc(C)cc1NC(=O)Nc1ccc(N2CCN(C(=O)Nc3ccc(N)cc3C(F)(F)F)CC2)cc1` [Example 166, 4-{4-[3-(2-methoxy-5-methyl-phenyl)-ureido]-phenyl}-piperazine-1-carboxylic acid (4-amino-2-trifluoromethyl-phenyl)-amide] registered a melting point of 244 to 246 °C. Also, the inhibition at 0.1 µg/mL at mouse DGAT1 was at least 50%.
Take `COc1ccc(C)cc1NC(=O)Nc1ccc(N2CCN(C(=O)Nc3c(C)cccc3N)CC2)cc1` [Example 167, 4-{4-[3-(2-methoxy-5-methyl-phenyl)-ureido]-phenyl}-piperazine-1-carboxylic acid (2-amino-6-methyl-phenyl)-amide]: the melting point was 198 to 199 °C. Also, the inhibition at 0.1 µg/mL on mouse DGAT1 is at least 50%.
With `COc1ccc(C)cc1NC(=O)Nc1ccc(N2CCN(C(=O)Nc3ccc(N)cc3Cl)CC2)cc1` [Example 168, 4-{4-[3-(2-methoxy-5-methyl-phenyl)-ureido]-phenyl}-piperazine-1-carboxylic acid (4-amino-2-chloro-phenyl)-amide], the melting point lay in the range of 226 to 228 °C. Also, the inhibition at 0.1 µg/mL at mouse DGAT1 was at least 50%.
The like results for `COc1ccc(C)cc1NC(=O)Nc1ccc(N2CCN(C(=O)Nc3ccc(NC(C)=O)cc3Cl)CC2)cc1` [Example 169, 4-{4-[3-(2-methoxy-5-methyl-phenyl)-ureido]-phenyl}-piperazine-1-carboxylic acid (4-acetylamino-2-chloro-phenyl)-amide] were, in that order, 155 to 157 °C and at least 50%.
The like results for `COc1ccc(C)cc1NC(=O)Nc1ccc(N2CCN(C(=O)Nc3c(C)cccc3OC)CC2)cc1` [Example 170, 4-{4-[3-(2-methoxy-5-methyl-phenyl)-ureido]-phenyl}-piperazine-1-carboxylic acid (2-methoxy-6-methyl-phenyl)-amide] were, in that order, 200 to 203 °C and at least 50%.
The compound `COc1ccc(C)cc1NC(=O)Nc1ccc(N2CCN(C(=O)Nc3ccc(Br)cc3C#N)CC2)cc1` [Example 171, 4-{4-[3-(2-methoxy-5-methyl-phenyl)-ureido]-phenyl}-piperazine-1-carboxylic acid (4-bromo-2-cyano-phenyl)-amide] showed a melting point of 149 to 151 °C. Moreover, the inhibition at 0.1 µg/mL on mouse DGAT1 is at least 50%.
With `COc1ccc(C)cc1NC(=O)Nc1ccc(N2CCN(C(=O)Nc3ccc(F)cc3C)CC2)cc1` [Example 172, 4-{4-[3-(2-methoxy-5-methyl-phenyl)-ureido]-phenyl}-piperazine-1-carboxylic acid (4-fluoro-2-methyl-phenyl)-amide], the melting point was > 270 °C (dec.). Also, the inhibition at 0.1 µg/mL on mouse DGAT1 was at least 50%.
`COc1ccc(C)cc1NC(=O)Nc1ccc(N2CCN(C(=O)Nc3ccc(NC(C)=O)cc3C(F)(F)F)CC2)cc1` [Example 173, 4-{4-[3-(2-methoxy-5-methyl-phenyl)-ureido]-phenyl}-piperazine-1-carboxylic acid (4-acetylamino-2-trifluoromethyl-phenyl)-amide]: the melting point is 152 to 154 °C. Further, the inhibition at 0.1 µg/mL on mouse DGAT1 is at least 50%.
The like results for `COc1ccc(C)cc1NC(=O)Nc1ccc(N2CCN(C(=O)Nc3c(C)cc(Cl)cc3C)CC2)cc1` [Example 174, 4-{4-[3-(2-methoxy-5-methyl-phenyl)-ureido]-phenyl}-piperazine-1-carboxylic acid (4-chloro-2,6-dimethyl-phenyl)-amide] were, in that order, 238 to 240 °C and at least 50%.
The like results for `COc1ccc(NC(=O)N2CCN(c3ccc(NC(=O)Nc4cc(C)ccc4OC)cc3)CC2)c(C(F)(F)F)c1` [Example 175, 4-{4-[3-(2-methoxy-5-methyl-phenyl)-ureido]-phenyl}-piperazine-1-carboxylic acid (4-methoxy-2-trifluoromethyl-phenyl)-amide] were, in that order, 245 to 247 °C and at least 50%.
Consider `COc1ccc(C)cc1NC(=O)Nc1ccc(N2CCN(C(=O)Nc3c(C)cccc3Br)CC2)cc1` [Example 177, 4-{4-[3-(2-methoxy-5-methyl-phenyl)-ureido]-phenyl}-piperazine-1-carboxylic acid (2-bromo-6-methyl-phenyl)-amide], for which the melting point lay in the range of 221 to 222 °C. The inhibition at 0.1 µg/mL at mouse DGAT1 is at least 50%.
The like results for `COc1ccc(C)cc1NC(=O)Nc1ccc(N2CCN(C(=O)Nc3ccc(C(C)C)cc3C(F)(F)F)CC2)cc1` [Example 178, 4-{4-[3-(2-methoxy-5-methyl-phenyl)-ureido]-phenyl}-piperazine-1-carboxylic acid (4-isopropyl-2-trifluoromethyl-phenyl)-amide] were, in that order, 134 to 135 °C and at least 50%.
Take `COc1ccc(C)cc1NC(=O)Nc1ccc(N2CCN(C(=O)Nc3c(C)cccc3C(=O)O)CC2)cc1` [Example 179, 2-[(4-{4-[3-(2-methoxy-5-methyl-phenyl)-ureido]-phenyl}-piperazine-1-carbonyl)-amino]-3-methyl-benzoic acid]: the melting point fell in the range of 159 to 160 °C. Also, at mouse DGAT1, the inhibition at 0.1 µg/mL is at least 50%.
The like results for `COc1ccc(C)cc1NC(=O)Nc1ccc(N2CCN(C(=O)Nc3ccc(C(=O)O)cc3C)CC2)cc1` [Example 180, 4-[(4-{4-[3-(2-methoxy-5-methyl-phenyl)-ureido]-phenyl}-piperazine-1-carbonyl)-amino]-3-methyl-benzoic acid] were, in that order, 178 to 180 °C and at least 50%.
The compound `COc1ccc(C)cc1NC(=O)Nc1ccc(N2CCN(C(=O)Nc3ccc(C(=O)O)cc3Cl)CC2)cc1` [Example 181, 3-chloro-4-[(4-{4-[3-(2-methoxy-5-methyl-phenyl)-ureido]-phenyl}-piperazine-1-carbonyl)-amino]-benzoic acid] yielded a melting point of 209 to 221 °C. Besides, the inhibition at 0.1 µg/mL at mouse DGAT1 was at least 50%.
`CCOc1ccccc1NC(=O)Nc1ccc(N2CCN(C(=O)Nc3c(C)cccc3OC)CC2)cc1` [Example 183, 4-{4-[3-(2-ethoxy-phenyl)-ureido]-phenyl}-piperazine-1-carboxylic acid (2-methoxy-6-methyl-phenyl)-amide] returned a melting point of 169 to 171 °C. For the same compound, the inhibition at 0.1 µg/mL on mouse DGAT1 is at least 50%.
The like results for `CCOc1ccc(C)cc1NC(=O)Nc1ccc(N2CCN(C(=O)Nc3c(C)cccc3OC)CC2)cc1` [Example 184, 4-{4-[3-(2-ethoxy-5-methyl-phenyl)-ureido]-phenyl}-piperazine-1-carboxylic acid (2-methoxy-6-methyl-phenyl)-amide] were, in that order, 142 to 144 °C and at least 50%.
The like results for `COc1ccc(C)cc1NC(=O)Nc1ccc(N2CCN(C(=O)Nc3c(C)cccc3CO)CC2)cc1` [Example 185, 4-{4-[3-(2-methoxy-5-methyl-phenyl)-ureido]-phenyl}-piperazine-1-carboxylic acid (2-hydroxymethyl-6-methyl-phenyl)-amide] were, in that order, 192 to 194 °C and at least 50%.
The like results for `COc1ccc(C)cc1NC(=O)Nc1ccc(N2CCN(C(=O)Nc3c(C)cccc3OC)CC2)nc1` [Example 186, 4-{5-[3-(2-methoxy-5-methyl-phenyl)-ureido]-pyridin-2-yl}-piperazine-1-carboxylic acid (2-methoxy-6-methyl-phenyl)-amide] were, in that order, 198 to 200 °C and at least 50%.
Regarding `CCOc1ccccc1NC(=O)Nc1ccc(N2CCN(C(=O)Nc3c(C)cccc3OC)CC2)nc1` [Example 187, 4-{5-[3-(2-ethoxy-phenyl)-ureido]-pyridin-2-yl}-piperazine-1-carboxylic acid (2-methoxy-6-methyl-phenyl)-amide], the melting point lay within 129 to 130 °C. Also, the inhibition at 0.1 µg/mL at mouse DGAT1 was at least 50%.
With `COc1ccc(C)cc1NC(=O)Nc1ccc(N2CCN(C(=O)Nc3ccc(NC(C)=O)cc3C(F)(F)F)CC2)nc1` [Example 188, 4-{5-[3-(2-methoxy-5-methyl-phenyl)-ureido]-pyridin-2-yl}-piperazine-1-carboxylic acid (4-acetylamino-2-trifluoromethyl-phenyl)-amide], the melting point lay in the range of 175 to 177 °C. The inhibition at 0.1 µg/mL on mouse DGAT1 was at least 50%.
The like results for `COc1ccc(C)cc1NC(=O)Nc1ccc(N2CCN(C(=O)Cc3c(F)cccc3F)CC2)cc1` [Example 192, 1-(4-{4-[2-(2,6-difluoro-phenyl)-acetyl]-piperazin-1-yl}phenyl)-3-(2-methoxy-5-methyl-phenyl)-urea] were, in that order, 213 to 215 °C and at least 50%.
